Target: T1, human PAD4 (Homo sapiens, UniProt Q9UM07)
T1 construct: human PAD4 (NM_012387), A2P663, was PCR amplified; His-SUMO (N, cleaved yes); made in house; host or cells: E. coli BL21(DE3)
Assay: In vitro PAD4 BAEE biochemical assay
Details: human PAD4, BAEE substrate; 5 nM PAD4, 2 mM calcium chloride, 3 mM BAEE; geometric mean of multiple experiments
How it was run: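 Ammonia generated from BAEE serves as the readout, measured by o-phthalaldehyde after EDTA termination. Final conditions: 5 nM human PAD4 (SUMO tag cleaved), 2 mM CaCl2, 3 mM BAEE, pH 7.6 MOPS buffer, 25 °C for 2 h following a 30-min compound preincubation.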

T1 sequence (Q9UM07 2-663): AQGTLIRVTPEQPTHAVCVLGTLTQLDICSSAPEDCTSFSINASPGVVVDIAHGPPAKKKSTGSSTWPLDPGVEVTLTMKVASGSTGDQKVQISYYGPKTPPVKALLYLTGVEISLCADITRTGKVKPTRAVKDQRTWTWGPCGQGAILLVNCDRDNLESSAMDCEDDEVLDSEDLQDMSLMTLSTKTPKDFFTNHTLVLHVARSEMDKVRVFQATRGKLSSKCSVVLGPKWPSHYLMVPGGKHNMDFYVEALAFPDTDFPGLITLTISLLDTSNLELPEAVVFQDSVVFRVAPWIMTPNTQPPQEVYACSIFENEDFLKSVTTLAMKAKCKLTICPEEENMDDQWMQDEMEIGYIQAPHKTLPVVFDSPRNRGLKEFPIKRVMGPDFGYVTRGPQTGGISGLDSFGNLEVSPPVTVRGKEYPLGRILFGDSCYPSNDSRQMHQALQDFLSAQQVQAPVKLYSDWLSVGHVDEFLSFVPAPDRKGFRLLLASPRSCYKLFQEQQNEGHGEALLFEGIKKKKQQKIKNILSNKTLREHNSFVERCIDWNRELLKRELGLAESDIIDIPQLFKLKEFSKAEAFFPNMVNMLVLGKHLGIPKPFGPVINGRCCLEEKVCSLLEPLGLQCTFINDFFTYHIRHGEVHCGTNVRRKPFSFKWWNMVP

Compared with `COc1cc(C(=O)N2CCC[C@@H](N)C2)cc2nc(-c3cc4ccc([C@@H](C)NC(=O)C(C)(C)C)nc4n3CC3CC3)c(C3CC3)n12` [Example 143, ~{N}-[(1~{R})-1-[2-[7-[(3~{R})-3-aminopiperidine-1-carbonyl]-3-cyclopropyl-5-methoxyimidazo [1,2-a]pyridin-2-yl]-1-(cyclopropylmethyl)pyrrolo [2,3-b]pyridin-6-yl]ethyl]-2,2-dimethylpropanamide], `COc1cc(C(=O)N2[C@H]3CC[C@@H]2[C@H](N)C3)cc2nc(-c3cc4ccc([C@@H](C)NC(=O)N5CC[C@H](F)C5)nc4n3CC3CC3)c(C3CC3)n12` [Example 216, (3~{S})-~{N}-[(1~{R})-1-[2-[7-[(1~{R},2~{R}, 4~{S})-2-amino-7-azabicyclo[2.2.1]heptane-7-carbonyl]-3-cyclopropyl-5-methoxyimidazo [1,2-a]pyridin-2-yl]-1-(cyclopropylmethyl)pyrrolo [2,3-b]pyridin-6-yl]ethyl]-3-fluoropyrrolidine-1-carboxamide] is 2.9-fold lower in IC50: 139 nM for the first, 48.3 nM for the second. The second is the more potent here.

Compared with `CCn1cc(C(=O)N[C@H](C)c2ccc3cc(-c4nc5cc(C(=O)N6[C@H]7CC[C@@H]6[C@H](N)C7)cc(OC)n5c4C)n(CC4CC4)c3n2)cn1` [Example 77, ~{N}-[(1~{R})-1-[2-[7-[(1~{R},2~{R},4~{S})-2-amino-7-azabicyclo[2.2.1]heptane-7-carbonyl]-5-methoxy-3-methylimidazo [1,2-a]pyridin-2-yl]-1-(cyclopropylmethyl)pyrrolo [2,3-b]pyridin-6-yl]ethyl]-1-ethylpyrazole-4-carboxamide], `COc1cc(C(=O)N2[C@H]3CC[C@@H]2[C@H](N)C3)cc2nc(-c3cc4ccc([C@@H](C)NC(=O)c5ccn(C)n5)nc4n3CC3CC3)c(C)n12` [Example 108, ~{N}-[(1~{R})-1-[2-[7-[(1~{R},2~{R},4~{S})-2-amino-7-azabicyclo[2.2.1]heptane-7-carbonyl]-5-methoxy-3-methylimidazo [1,2-a]pyridin-2-yl]-1-(cyclopropylmethyl)pyrrolo [2,3-b]pyridin-6-yl]ethyl]-1-methylpyrazole-3-carboxamide] is 1.7-fold higher in IC50: 30.7 nM for the first, 52.3 nM for the second. The first is the more potent here.

Going from `COc1cc(C(=O)N2CCC3CC3(N)C2)cc2nc(-c3cc4ccc(N(C(F)F)S(C)(=O)=O)nc4n3CC3CC3)c(C)n12` (stereo not drawn) [Example 365, ~{N}-[2-[7-(1-amino-3-azabicyclo[4.1.0]heptane-3-carbonyl)-5-methoxy-3-methylimidazo [1,2-a]pyridin-2-yl]-1-(cyclopropylmethyl)pyrrolo [2,3-b]pyridin-6-yl]-~{N}-(difluoromethyl) methanesulfonamide] to `COc1cc(C(=O)N2C[C@H]3CNCC[C@H]32)cc2nc(-c3cc4ccc(N(C(F)F)S(C)(=O)=O)nc4n3CC3CC3)c(C)n12` [Example 284, ~{N}-[1-(cyclopropylmethyl)-2-[7-[(1~{R},6~{R})-3,7-diazabicyclo[4.2.0]octane-7-carbonyl]-5-methoxy-3-methylimidazo[1,2-a]pyridin-2-yl]pyrrolo[2,3-b]pyridin-6-yl]-~{N}-(difluoromethyl) methanesulfonamide], the IC50 rises from 403 nM to 13400 nM (33-fold). The first is the more potent here.

Compared with `COc1cc(C(=O)N2CC[C@H]3CCCN[C@H]3C2)cc2nc(-c3cc4ccc(N(C(F)F)S(C)(=O)=O)nc4n3CC3CC3)c(C3CC3)n12` [Example 310, ~{N}-[2-[7-[(4~{a}~{R},8~{a}~{R})-2,3,4,4~{a},5,6,8,8~{a}-octahydro-1~{H}-1,7-naphthyridine-7-carbonyl]-3-cyclopropyl-5-methoxyimidazo [1,2-a]pyridin-2-yl]-1-(cyclopropylmethyl)pyrrolo [2,3-b]pyridin-6-yl]-~{N}-(difluoromethyl) methanesulfonamide], `COc1cc(C(=O)N2CCC[C@@H](N)C2)cc2nc(-c3cc4ccc(N(C(F)F)S(C)(=O)=O)nc4n3CC(F)(F)F)c(C)n12` [Example 494, ~{N}-[2-[7-[(3~{R})-3-aminopiperidine-1-carbonyl]-5-methoxy-3-methylimidazo[1,2-a]pyridin-2-yl]-1-(2,2,2-trifluoroethyl)pyrrolo [2,3-b]pyridin-6-yl]-~{N}-(difluoromethyl) methanesulfonamide] is 3.2-fold lower in IC50: 886 nM for the first, 276 nM for the second.

First: COc1cc(C(=O)N2[C@H]3CC[C@@H]2[C@H](N)C3)cc2nc(-c3cc4ccc([C@@H](C)NC(=O)c5cccnc5)nc4n3CC3CC3)c(C)n12 [Example 120, ~{N}-[(1~{R})-1-[2-[7-[(1~{R},2~{R},4~{S})-2-amino-7-azabicyclo[2.2.1]heptane-7-carbonyl]-5-methoxy-3-methylimidazo [1,2-a]pyridin-2-yl]-1-(cyclopropylmethyl)pyrrolo [2,3-b]pyridin-6-yl]ethyl]pyridine-3-carboxamide]
Second: COc1cc(C(=O)N2[C@H]3CC[C@@H]2[C@H](N)C3)cc2nc(-c3cc4ccc([C@@H](C)NC(=O)NCc5ccncc5)nc4n3CC3CC3)c(C)n12 [Example 223, 1-[(1~{R})-1-[2-[7-[(1~{R},2~{R},4~{S})-2-amino-7-azabicyclo[2.2.1]heptane-7-carbonyl]-5-methoxy-3-methylimidazo [1,2-a]pyridin-2-yl]-1-(cyclopropylmethyl)pyrrolo [2,3-b]pyridin-6-yl]ethyl]-3-(pyridin-4-ylmethyl)urea]
The IC50 of the first is 2.6-fold lower: 30.1 nM for the first, 77.3 nM for the second.

First: COc1cc(C(=O)N2[C@H]3CC[C@@H]2[C@H](N)C3)cc2nc(-c3cc4ccc([C@@H](C)NC(=O)C56CC(Cl)(C5)C6)nc4n3CC3CC3)c(C)n12 [Example 133, ~{N}-[(1~{R})-1-[2-[7-[(1~{R},2~{R},4~{S})-2-amino-7-azabicyclo[2.2.1]heptane-7-carbonyl]-5-methoxy-3-methylimidazo [1,2-a]pyridin-2-yl]-1-(cyclopropylmethyl)pyrrolo [2,3-b]pyridin-6-yl]ethyl]-3-chlorobicyclo[1.1.1]pentane-1-carboxamide]
Second: COc1cc(C(=O)N2[C@H]3CC[C@@H]2[C@H](N)C3)cc2nc(-c3cc4ccc([C@@H](C)NC(=O)C56CC(C(F)(F)F)(C5)C6)nc4n3CC3CC3)c(C)n12 [Example 157, ~{N}-[(1~{R})-1-[2-[7-[(1~{R},2~{R},4~{S})-2-amino-7-azabicyclo[2.2.1]heptane-7-carbonyl]-5-methoxy-3-methylimidazo [1,2-a]pyridin-2-yl]-1-(cyclopropylmethyl)pyrrolo [2,3-b]pyridin-6-yl]ethyl]-3-(trifluoromethyl)bicyclo [1.1.1]pentane-1-carboxamide]
The IC50 of the first is 2.4-fold lower: 56.1 nM for the first, 133 nM for the second.

Going from `COc1cc(C(=O)N2[C@H]3CC[C@@H]2[C@H](N)C3)cc2nc(-c3cc4ccc(N5CCN(c6ccccc6)CCS5(=O)=O)nc4n3CC3CC3)c(C)n12` [Example 444, [(1~{R},2~{R},4~{S})-2-amino-7-azabicyclo [2.2.1]heptan-7-yl]-[2-[1-(cyclopropylmethyl)-6-(1,1-dioxo-5-phenyl-1,2,5-thiadiazepan-2-yl)pyrrolo [2,3-b]pyridin-2-yl]-5-methoxy-3-methylimidazo [1,2-a]pyridin-7-yl] methanone] to `COc1cc(C(=O)N2[C@H]3CC[C@@H]2[C@H](N)C3)cc2nc(-c3cc4ccc(N5CCN(Cc6cccnc6)CCS5(=O)=O)nc4n3CC3CC3)c(C)n12` [Example 442, [(1~{R},2~{R},4~{S})-2-amino-7-azabicyclo [2.2.1]heptan-7-yl]-[2-[1-(cyclopropylmethyl)-6-[1,1-dioxo-5-(pyridin-3-ylmethyl)-1,2,5-thiadiazepan-2-yl]pyrrolo [2,3-b]pyridin-2-yl]-5-methoxy-3-methylimidazo [1,2-a]pyridin-7-yl] methanone], the IC50 falls from 130 nM to 40.9 nM (3.2-fold). The second is the more potent here.

`CCc1ccc2cc(-c3nc4cc(C(=O)N5[C@H]6CC[C@@H]5[C@H](N)C6)cc(OC)n4c3C)n(CC(F)(F)F)c2n1` [Example 504, [(1~{R},2~{R},4~{S})-2-amino-7-azabicyclo [2.2.1]heptan-7-yl]-[2-[6-ethyl-1-(2,2,2-trifluoroethyl)pyrrolo[2,3-b]pyridin-2-yl]-5-methoxy-3-methylimidazo[1,2-a]pyridin-7-yl]methanone] and `COc1cc(C(=O)N2[C@H]3CC[C@@H]2[C@H](N)C3)cc2nc(-c3cc4ccc([C@@H](C)NC(=O)C5(C(F)(F)F)CCOCC5)nc4n3CC3CC3)c(C)n12` [Example 67, ~{N}-[(1~{R})-1-[2-[7-[(1~{R},2~{R},4~{S})-2-amino-7-azabicyclo [2.2.1]heptane-7-carbonyl]-5-methoxy-3-methylimidazo [1,2-a]pyridin-2-yl]-1-(cyclopropylmethyl)pyrrolo[2,3-b]pyridin-6-yl]ethyl]-4-(trifluoromethyl)oxane-4-carboxamide] are within 1.5-fold of each other in IC50: 132 nM for the first, 124 nM for the second.

First: COc1cc(C(=O)N2[C@H]3CC[C@@H]2[C@H](N)C3)cc2nc(-c3cc4ccc(C(CC(=O)N5CCCC5)C5CC5)nc4n3CC3CC3)c(C)n12 (stereo partly drawn) [Example 542, 3-[2-[7-[(1~{R},2~{R}, 4~{S})-2-amino-7-azabicyclo[2.2.1]heptane-7-carbonyl]-5-methoxy-3-methylimidazo[1,2-a]pyridin-2-yl]-1-(cyclopropylmethyl)pyrrolo[2,3-b]pyridin-6-yl]-3-cyclopropyl-1-pyrrolidin-1-ylpropan-1-one]
Second: COc1cc(C(=O)N2[C@H]3CC[C@@H]2[C@H](N)C3)cc2nc(-c3cc4ccc([C@@H](C)CC(=O)N5CCCC5)nc4n3CC3CC3)c(C)n12 [Example 523, (3~{S})-3-[2-[7-[(1~{R},2~{R},4~{S})-2-amino-7-azabicyclo[2.2.1]heptane-7-carbonyl]-5-methoxy-3-methylimidazo [1,2-a]pyridin-2-yl]-1-(cyclopropylmethyl)pyrrolo[2,3-b]pyridin-6-yl]-1-pyrrolidin-1-ylbutan-1-one]
The IC50 of the first is 2-fold higher: 119 nM for the first, 59.1 nM for the second.
